Experiments:
[1] = target: T1, NF-Yd/YA (reconstituted NF-Y trimer with YA3) (Homo sapiens, UniProt P25208+Q13952); assay: EMSA inhibition of DNA binding; settings: 40 nM protein, 20 nM Cy5 HSP70 CCAAT probe, pH 7.5, 5 mM MgCl2, 30 °C; suramin 50 and 100 µM
T1 construct: gene NFYB; NF-Yd (NF-YB 49-141/NF-YC 27-120, His-tag cut) mixed with separately purified NF-YA aa 239-347, C-terminal His-tag; E. coli BL21(DE3); with Nuclear transcription factor Y subunit alpha

[2] = target: T2, NF-Yd (NF-YB/NF-YC histone fold domain dimer, YB/YCmd) (Homo sapiens, UniProt P25208+Q13952); assay: ITC; format: binding
T2 construct: gene NFYB; minimal histone fold domains, NF-YB aa 49-141 with N-terminal 6His (thrombin-cleaved), NF-YC aa 27-120; coexpressed in E. coli BL21(DE3)
T2 sequence (P25208 51-143): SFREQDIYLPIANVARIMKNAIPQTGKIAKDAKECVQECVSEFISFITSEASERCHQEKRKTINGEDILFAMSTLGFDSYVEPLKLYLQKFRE
T2 sequence (Q13952 27-120): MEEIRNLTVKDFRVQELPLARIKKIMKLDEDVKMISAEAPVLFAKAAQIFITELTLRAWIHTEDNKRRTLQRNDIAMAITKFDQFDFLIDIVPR

[3] = target: T3, NF-Yt (NF-Ymd, minimal domain NF-Y trimer) (Homo sapiens, UniProt P25208+Q13952); assay: STD NMR; EMSA inhibition of DNA binding; settings: STD NMR: 25 µM protein, 1 mM suramin, 10 mM Tris-DCl pH 8, 150 mM NaCl, 25 °C; EMSA: 40 nM protein, 20 nM HSP70 CCAAT probe, pH 7.5, 30 °C
T3 construct: gene NFYB; minimal domains NF-YB 49-141, NF-YC 27-120, NF-YA 262-332 with C-terminal 6His (thrombin-cleaved); coexpressed in E. coli BL21(DE3); with Nuclear transcription factor Y subunit alpha
T3 sequence (P23511 262-332 partner, one chain of several): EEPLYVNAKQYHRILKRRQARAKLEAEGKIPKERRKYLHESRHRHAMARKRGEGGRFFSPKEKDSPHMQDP

T1 sequence (P23511 239-347 partner, one chain of several): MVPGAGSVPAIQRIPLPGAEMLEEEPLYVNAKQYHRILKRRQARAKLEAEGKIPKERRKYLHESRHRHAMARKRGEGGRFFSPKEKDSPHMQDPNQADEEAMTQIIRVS

## Cc1ccc(C(=O)Nc2ccc(S(=O)(=O)O)c3cc(S(=O)(=O)O)cc(S(=O)(=O)O)c23)cc1NC(=O)c1cccc(NC(=O)Nc2cccc(C(=O)Nc3cc(C(=O)Nc4ccc(S(=O)(=O)O)c5cc(S(=O)(=O)O)cc(S(=O)(=O)O)c45)ccc3C)c2)c1 [suramin]
[1]
  EMSA inhibition of DNA binding: suramin addition substantially decreased the formation of NF-Y-bound DNA complexes, in a dose-dependent manner
[2]
  Kd: 2900 ± 700 nM
[3]
  STD NMR; EMSA inhibition of DNA binding: demonstrates the interaction of the compound with both the dimer and the trimer

— article PMC7692634, “Structural Basis of Inhibition of the Pioneer Transcription Factor NF-Y by Suramin” (Cells, 2020)
